Article PMC7762591, “AmOctα2R: Functional Characterization of a Honeybee Octopamine Receptor Inhibiting Adenylyl Cyclase Activity” (International Journal of Molecular Sciences, 2020)
“Also recorded” adds a separate entry of the source. Like-named read-outs stand apart in the source and are kept apart here.

What was measured:
AmOctα2R-HA [1] = target: T1, AmOctα2R-HA (Apis mellifera, UniProt A0A7M7FZR9); assay: Antagonist concentration-response on tyramine-activated AmOctα2R-HA in flpTM cells; format: cell-based
Protocol: The ability of various potential antagonists for impairing AmOctα2R-HA activity was assessed in a similar way. […] Ligand concentrations that led to the half-maximal inhibition of AmOctα2R-HA (IC50) were determined from the concentration–response curves and are summarized in Table 2.
(§1) For AmOctα2R-HA expression and pharmacological analysis, we used a human embryonic kidney (HEK293; flpIn cells; Invitrogen/ThermoFisher Scientific; #750-07)-based cell line that was transfected with a gene encoding a variant of the A2-subunit of the olfactory CNG ion channel (flpTM cells), provided by Sibion biosciences, Jülich, Germany. These flpTM cells were transfected with 3 µg, 8 µg, or 12 µg of the pcAmOctα2R-HA construct by a modified calcium phosphate method following a previously established protocol. Transfected cells were selected in the presence of the antibiotics G418 (1 mg/mL) and hygromycin (100 µg/mL). Expression of AmOctα2R-HA was monitored by Western blotting and immunocytochemistry using anti-HA antibodies (Roche/Sigma-Aldrich/Merck).
(§2) A stably transfected cell line was used to examine AmOctα2R-HA receptor activity by Ca^2+ imaging. Control measurements were performed in the parental (flpTM) cell line. Changes in [cAMP]i were registered indirectly via co-expressed CNG channels that were opened by cAMP and cause an influx of extracellular Ca^2+ [30, 32, 48]. Changes in [Ca^2+]i were monitored with the Ca^2+-sensitive fluorescent dye Fluo-4. Cells were grown in 96-well dishes to a density of approximately 2 × 10^4 cells per well and were loaded at room temperature with Fluo-4 AM as described previously. After 90 min, the loading solution was substituted with a dye-free extracellular solution (ECS; 120 mM NaCl, 5 mM KCl, 2 mM MgCl2, 2 mM CaCl2, 10 mM HEPES, and 10 mM glucose, pH 7.4 (NaOH)) containing 100 µM IBMX. The plate was transferred into a fluorescence reader (FLUOstar Omega, BMG Labtech, Ortenberg, Germany) to monitor Fluo-4 fluorescence. The excitation wavelength was 485 nm. Fluorescence emission was detected at 520 nm. Concentration series of various biogenic amines and synthetic receptor ligands were added, once Fluo-4 fluorescence intensity reached a stable value in each well. The changes in Fluo-4 fluorescence were recorded automatically. Concentration–response curves were established from at least three independent experiments with quadruplicate measurements.

AmOctα2R-HA [2] = target: T1, AmOctα2R-HA; assay: Antagonist concentration-response on octopamine-activated AmOctα2R-HA in flpTM cells; format: cell-based
Protocol: as §1, §2
Table S3. Mean values for half-maximal inhibition (IC50 [M] and log IC50 ± SD) for substances with antagonistic activity on octopamine-activated AmOctα2R. For each substance at least […] independent experiments with quadruplicate measurements were performed. Values were obtained from non-linear fitting of the data from concentration-response curves (GraphPad Prism 5.04).
Substance IC50 [M] log IC50 […]
Biol Direct. 2008, 3, 20. […]
Int.

DmOctα2R = test system: DmOctα2R; design: method as in PMID 28942992; conditions: dose-dependent activation of DmOctα2R; cited from earlier work
AmOctα2R-HA [3] = target: T1, AmOctα2R-HA; assay: Agonist effects on NKH 477-stimulated cAMP (Fluo-4 Ca2+ fluorescence via co-expressed CNG channel) in AmOctα2R-HA-expressing flpTM cells; format: cell-based; conditions: for effect on NKH 477-stimulated cAMP production (Ca2+-dependent fluorescence signal): biogenic amines 10^−6 M each
Protocol: as §1, §2

[4] = test system: nontransfected flpTM cells; assay: Control measurements of Fluo-4 fluorescence in nontransfected (parental) flpTM cells; format: cell-based, human
Protocol: as §1
A stably transfected cell line was used to examine AmOctα2R-HA receptor activity by Ca^2+ imaging. […] Changes in [Ca^2+]i were monitored with the Ca^2+-sensitive fluorescent dye Fluo-4. […] The plate was transferred into a fluorescence reader (FLUOstar Omega, BMG Labtech, Ortenberg, Germany) to monitor Fluo-4 fluorescence. […] Fluorescence emission was detected at 520 nm. Concentration series of various biogenic amines and synthetic receptor ligands were added, once Fluo-4 fluorescence intensity reached a stable value in each well. The changes in Fluo-4 fluorescence were recorded automatically. […]

[5] = log of IC50 in M, tyramine-activated (10 µM tyramine), read-out: logIC50 ± SD (converted)
[6] = tyramine-activated (10 µM tyramine)
[7] = tyramine-activated (10 µM tyramine), 10 µM NKH 477, 100 µM IBMX, read-out: IC50 [M], mean value for half-maximal inhibition
[8] = block of the action of octopamine, second value of the pair, read-out: IC50
[9] = log of IC50 in M, octopamine-activated (3 × 10^−7 M octopamine), read-out: log IC50 ± SD (converted)
[10] = log IC50 ± SD, log of IC50 in M, octopamine-activated (3 × 10^−7 M octopamine)
[11] = log of EC50 in M, mean of all experiments, octopamine n = 7, tyramine n = 11, read-out: logEC50 ± SD, mean value (converted)
[12] = log of EC50 in M, single concentration-response curve (Figures 4 and 6), read-out: logEC50 ± SD, typical experiment (converted)
[13] = mean of all experiments, octopamine n = 7, tyramine n = 11, 10 µM NKH 477, 100 µM IBMX, read-out: EC50 [M], mean value for half-maximal stimulation
[14] = single concentration-response curve (Figures 4 and 6), octopamine fitted from 10^−9 M to 3 × 10^−6 M, read-out: EC50 (half-maximal reduction of cAMP / activation), typical experiment

T1 sequence (A0A7M7FZR9 entry or part of it): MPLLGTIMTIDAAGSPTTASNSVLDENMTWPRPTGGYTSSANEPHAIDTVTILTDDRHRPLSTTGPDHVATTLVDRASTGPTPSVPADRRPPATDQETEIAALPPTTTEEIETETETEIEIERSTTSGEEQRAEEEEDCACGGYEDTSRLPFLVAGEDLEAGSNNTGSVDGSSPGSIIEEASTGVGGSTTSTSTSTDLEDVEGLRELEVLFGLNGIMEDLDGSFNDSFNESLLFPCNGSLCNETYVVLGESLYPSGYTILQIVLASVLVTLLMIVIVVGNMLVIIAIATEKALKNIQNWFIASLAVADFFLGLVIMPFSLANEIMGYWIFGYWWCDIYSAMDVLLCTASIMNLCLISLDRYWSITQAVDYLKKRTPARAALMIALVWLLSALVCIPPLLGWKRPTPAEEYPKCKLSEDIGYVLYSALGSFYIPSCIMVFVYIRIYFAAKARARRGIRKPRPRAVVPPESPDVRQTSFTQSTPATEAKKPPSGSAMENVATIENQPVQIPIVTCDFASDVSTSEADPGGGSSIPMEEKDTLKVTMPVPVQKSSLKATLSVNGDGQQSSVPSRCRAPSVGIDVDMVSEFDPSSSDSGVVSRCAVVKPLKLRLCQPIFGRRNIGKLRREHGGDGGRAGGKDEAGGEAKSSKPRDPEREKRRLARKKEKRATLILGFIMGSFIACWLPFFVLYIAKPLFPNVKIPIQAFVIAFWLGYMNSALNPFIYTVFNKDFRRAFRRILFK

**Q.** Which IC50 (AmOctα2R-HA [1]; [5]) does the source give for Cc1ccc(N(CC2=NCCN2)c2cccc(O)c2)cc1 [phentolamine] here?
**A.** 5.01e-09 M

**Q.** What about the “Maximal Inhibition [%]” value (AmOctα2R-HA [1]; [6]) of the same compound?
**A.** 16.1%

**Q.** And the IC50 (AmOctα2R-HA [1]; [7])?
**A.** 5.6e-09 M

**Q.** What about the IC50 (AmOctα2R-HA [2]; [8]) of the same compound?
**A.** 0.00821 µM

**Q.** What about the IC50 (AmOctα2R-HA [2]; [9]) of the same compound?
**A.** 0.00813 µM

**Q.** Which results are given for NC1=NCC2c3ccccc3Cc3ccccc3N12 (stereo not drawn) [epinastine]?
**A.** IC50 (AmOctα2R-HA [1]; [5]): 1.78e-08 M; Maximal Inhibition [%] (AmOctα2R-HA [1]; [6]): 17.31%; IC50 (AmOctα2R-HA [2]; [9]): 0.0162 µM

**Q.** With CCCN(CCC)C1CCc2cccc(O)c2C1 (stereo not drawn) [8-OH-DPAT, 8-Hydroxy-2-(dipropylamino)tetralin] as the compound, how does the IC50 (AmOctα2R-HA [1]) read?
**A.** 7.08e-07 M

**Q.** And the “Maximal Inhibition [%]” value (AmOctα2R-HA [1]; [6])?
**A.** 7.21%

**Q.** And the IC50 (AmOctα2R-HA [2]; [10])?
**A.** 0.166 µM

**Q.** Which results are given for O=C(c1ccc(F)cc1)C1CCN(CCn2c(=O)[nH]c3ccccc3c2=O)CC1 [ketanserin]?
**A.** IC50 (AmOctα2R-HA [1]; [5]): 5.13e-07 M; Maximal Inhibition [%] (AmOctα2R-HA [1]; [6]): 17.11%; IC50 (AmOctα2R-HA [2]; [9]): 0.324 µM

**Q.** With NCCc1c[nH]c2ccc(C(N)=O)cc12 [5-CT, 5-carboxamidotryptamine] as the compound, how does the “logIC50 ± SD” value (AmOctα2R-HA [1]; log of IC50 in M, tyramine-activated (10 µM tyramine)) read?
**A.** −8.48 ± 0.20

**Q.** And the “Maximal Inhibition [%]” value (AmOctα2R-HA [1]; [6])?
**A.** 10.8%

**Q.** What about the IC50 (AmOctα2R-HA [1]; [7]) of the same compound?
**A.** 4.16e-09 M

**Q.** And the IC50 (AmOctα2R-HA [2]; [8])?
**A.** 0.00027 µM

**Q.** What about the “log IC50 ± SD” value (AmOctα2R-HA [2]; log of IC50 in M, octopamine-activated (3 × 10^−7 M octopamine)) of the same compound?
**A.** -9.57 ± 0.21

**Q.** For Cc1nn(C)c(C)c1-c1cccc2c1CC[C@H](N(C)C)C2 [AS-19], which “IC50 [M], mean value for half-maximal inhibition” value (AmOctα2R-HA [1]; tyramine-activated (10 µM tyramine), 10 µM NKH 477, 100 µM IBMX) is on record?
**A.** did not show any effect; also recorded: no effect

**Q.** Which EC50 (DmOctα2R) does the source give for NCCc1c[nH]c2ccc(O)cc12 [serotonin, 5-hydroxytryptamine] here?
**A.** 1.04 µM

**Q.** And the “activation of AmOctα2R” value (AmOctα2R-HA [3])?
**A.** failed to activate

**Q.** And the “effect on NKH 477-stimulated cAMP production (Ca2+-dependent fluorescence signal)” value (from here on “effect”) (AmOctα2R-HA [3])?
**A.** no effect

**Q.** What does the source list for COC(=O)[C@@H]1[C@H]2C[C@H]3c4[nH]c5ccccc5c4CCN3C[C@@H]2CC[C@@H]1O [yohimbine]?
**A.** IC50 (AmOctα2R-HA [1]): 7.59e-08 M; Maximal Inhibition [%] (AmOctα2R-HA [1]; [6]): 14.3%; IC50 (AmOctα2R-HA [2]; [10]): 0.363 µM

**Q.** Which “effect” value (AmOctα2R-HA [3]) does the source give for NCCc1ccc(O)cc1 [tyramine] here?
**A.** decrease in the Ca^2+-dependent fluorescence signal

**Q.** What about the EC50 (AmOctα2R-HA [3]; [11]) of the same compound?
**A.** 1.66e-06 M

**Q.** And the EC50 (AmOctα2R-HA [3]; [12])?
**A.** 1.63e-06 M

**Q.** And the EC50 (AmOctα2R-HA [3]; [13])?
**A.** 1.85e-06 M

**Q.** What about the Emax (AmOctα2R-HA [3]; saturated at tyramine concentration of ≥3 × 10^−5 M, relative to 10 µM NKH 477 (=100%), read-out: reduction of cAMP signal at saturation) of the same compound?
**A.** ~17%

**Q.** What about the EC50 (AmOctα2R-HA [3]; [14]) of the same compound?
**A.** 1.63e-06 M

**Q.** What about the “change in the fluorescence signal upon application” value [4] of the same compound?
**A.** no change in the fluorescence signal

**Q.** For COc1ccc2[nH]cc(CCN)c2c1 [5-MT, 5-methoxytryptamine], which IC50 (AmOctα2R-HA [1]; IC50, block of the action of tyramine, first value of the printed pair) is on record?
**A.** 2.06e-08 M

**Q.** What about the IC50 (AmOctα2R-HA [1]; logIC50 ± SD, log of IC50 in M, tyramine-activated (10 µM tyramine)) of the same compound?
**A.** 1.91e-08 M

**Q.** What about the “Maximal Inhibition [%]” value (AmOctα2R-HA [1]; [6]) of the same compound?
**A.** 20.3%

**Q.** What about the IC50 (AmOctα2R-HA [2]; IC50, block of the action of octopamine, second value of the pair) of the same compound?
**A.** 0.836 µM

**Q.** What about the IC50 (AmOctα2R-HA [2]; [10]) of the same compound?
**A.** 0.832 µM

**Q.** With NCCc1ccc(O)c(O)c1 [dopamine] as the compound, how does the “effect” value (AmOctα2R-HA [3]) read?
**A.** no effect

**Q.** Which results are given for NCC(O)c1ccc(O)cc1 (stereo not drawn) [octopamine]?
**A.** octopamine concentration at which an increase in the fluorescence signal was observed (AmOctα2R-HA [3]; AmOctα2R-HA-expressing flpTM cells, U-shaped curve, 10 µM NKH 477, 100 µM IBMX): ≥ 3 µM; Emax at 1 µM (AmOctα2R-HA [3]; at 10^−6 M octopamine, relative to 10 µM NKH 477 (=100%), read-out: maximal reduction of cAMP synthesis): ~25%; effect on NKH 477-stimulated cAMP production (Ca2+-dependent fluorescence signal) (AmOctα2R-HA [3]): decrease in the Ca^2+-dependent fluorescence signal; EC50 (AmOctα2R-HA [3]; [11]): 3.72e-08 M; EC50 (AmOctα2R-HA [3]; [12]): 1.17e-07 M; EC50 (AmOctα2R-HA [3]; [13]): 5.87e-08 M; specificity for octopamine over tyramine (difference in EC50) (AmOctα2R-HA [3]; ratio of EC50 values): ~ 30 fold; EC50 (AmOctα2R-HA [3]; [14]): 1.17e-07 M; octopamine concentration leading to an increase in Fluo-4 fluorescence ([4]; in the presence of NKH 477): ≥ 300 nM
